Source: patent publication US9029078B2, “Perfusion and/or preservation solution for organs” (Philadelphia College of Osteopathic Medicine, priority 2005, dated 2015)
Entries after “also recorded” stand apart in the source; their conditions may differ. Where no end group is shown, it is not given here.

Assays:
[1] = system: PMN infiltration into the myocardium of isolated perfused rat hearts; assay: Histological assessment of total intravascular and infiltrated PMNs in post-reperfusion cardiac tissue; conditions: I/R+PMN hearts
Procedure: FIG. 4a. Histological assessment of total intravascular and infiltrated PMNs in isolated perfused rat heart samples taken from 3 rats per group and 10 areas per heart. […] Hatched boxes represent non-PMN perfused hearts and black boxes represent PMN-perfused hearts. **P<0.01, from I/R+PMNs.
(§1) Data were recorded every 5 min for 45 min post-reperfusion. After each experiment, the left ventricle was isolated, fixed in 4% paraformaldehyde and stored at 4° C. for later histological analysis.
The cardiac injury associated with I/R in this model was closely correlated with the substantial number of PMNs infiltrating the myocardium within the 45 min reperfusion period. During reperfusion, a significant number of PMNs transmigrated into the myocardium, increasing from less than 25 PMN/mm^2 in Sham I/R hearts to more than 180 PMN/mm^2 in I/R+PMN hearts at the end of the reperfusion period (FIG. 4a).

[2] = system: isolated perfused rat hearts (I/R+PMNs); assay: Isolated perfused rat heart, 20 min ischemia / 45 min reperfusion with PMNs: cardiac contractile function (LVDP, +dP/dtmax, LVEDP); conditions: for LVDP of initial baseline (initial depression): 15 min into reperfusion; for PMN-induced contractile dysfunction / decrease in +dP/dt max (in words): final +dP/dt max after reperfusion; for PMN-induced contractile dysfunction / decrease in +dP/dt max (in words) / PMN-induced contractile dysfunction / decrease in LVDP (in words): vs I/R+PMNs; for PMN-induced contractile dysfunction / decrease in LVDP (in words): final LVDP, 45 min post reperfusion
Procedure: as §1

[3] = system: PMN adherence to coronary vascular endothelium; assay: Histological assessment of intravascular PMNs adhering to the coronary vasculature; design: species or system rat
Procedure: FIG. 4b. Histological assessment of intravascular PMNs that adhered to the coronary vasculature in isolated perfused rat heart samples taken from 3 rats per group
and 10 areas per heart. […] Hatched boxes represent non-PMN perfused hearts and black boxes represent PMN-perfused hearts. All values are mean numbers of PMNs/mm^2 of heart area± SEM.
PMN adherence to coronary vascular endothelium was also evaluated within the assessment of total intravascular and infiltrated PMNs. […] NO release from rat aortic endothelium was measured to determine if PKC ζ peptide inhibitor provides cardioprotection by a mechanism involving increased endothelial NO release. […] The eNOS inhibitor, L-NAME, was used as another control in order to decrease basal release of NO to zero.

PMA-stimulated rat PMNs = assay: Superoxide release from PMA-stimulated rat PMNs; format: cell-based; conditions: for Superoxide release (absorbance): PMA-stimulated PMNs alone 0.49±0.03
Procedure: FIG. 6. Superoxide release from rat PMNs. Superoxide release was measured from 5×10^6 PMNs after phorbol-12-myristate-13-acetate (PMA) (15 nM) stimulation. Superoxide dismutase (SOD) (10 μg/ml) was employed as a positive control. The change in absorbance (Δ) was measured 360 sec after PMA addition (peak response). […] All values are means± SEM. Numbers at bottom of bars show the numbers of separate experiments per group.
FIG. 18. Superoxide release from rat PMNs. Superoxide release was measured from 5×10^6 PMNs after PMA (15 nM) stimulation. SOD (10 μg/ml) was employed as a positive control. The change in absorbance (Δ) was measured 360 sec after PMA addition (peak response). […] All values are means± SEM. Numbers at bottom of bars show the numbers of separate experiments per group.
FIG. 22. Superoxide release from rat PMNs. Superoxide release was measured from 5×10^6 PMNs after PMA (15 nM) stimulation. The change in absorbance (Δ) was measured 360 sec after PMA addition (peak response). […] All values are means± SEM. Numbers at bottom of bars show the numbers of separate experiments per group.

rat aortic endothelium = assay: Measurement of NO release from rat aortic segments; conditions: for Increase in NO release above basal: basal 1.85±0.18
From the text: FIG. 5. Measurement of NO release from rat aortic segments. […] All values are expressed as means± SEM. Numbers at bottom of bars are numbers of separate experiments per group. *p<0.05, **p<0.01, from basal values. FIG. 10. Measurement of NO release from rat aortic segments. […] All values are expressed as means± SEM. Numbers at bottom of bars are numbers of separate experiments per group. *p<0.05, **p<0.01, from basal values. FIG. 17. Measurement of NO release from rat aortic segments. […] All values are expressed as means± SEM. Numbers at bottom of bars are numbers of separate experiments per group. **p<0.01, from basal values. PMN adherence to coronary vascular endothelium was also evaluated within the assessment of total intravascular and infiltrated PMNs. […] NO release from rat aortic endothelium was measured to determine if PKC ζ peptide inhibitor provides cardioprotection by a mechanism involving increased endothelial NO release. […] The eNOS inhibitor, L-NAME, was used as another control in order to decrease basal release of NO to zero.

fMLP-stimulated rat PMNs = assay: Superoxide release from fMLP-stimulated rat PMNs; format: cell-based; conditions: for Superoxide release (absorbance): fMLP-stimulated PMNs alone 0.13±0.01
Procedure: FIG. 11. Superoxide release from rat PMNs. Superoxide release was measured from 5×10^6 PMNs after formyl-methionyl-leucyl-phenylalanine (fMLP) (200 nM) stimulation. SOD (10 μg/ml) was employed as a positive control. The change in absorbance (Δ) was measured 90 sec after fMLP addition (peak response). […] All values are means± SEM. Numbers at bottom of bars are numbers of separate experiments per group.

[4] = I/R+PMN hearts, 1 μM, 45 min post-reperfusion
[5] = I/R+PMN hearts, 5 μM, 45 min post-reperfusion
[6] = I/R+PMN hearts, 10 μM, 45 min post-reperfusion
[7] = I/R+PMN hearts, 10 μM + L-NAME 50 μM, 45 min post-reperfusion

PKC δ peptide activator: peptide activator of protein kinase C delta; preferred sequence SEQ ID NO: 3, preferably myristoylated (MRAAEDPM; not fully specified; listed as Homo sapiens)
Total intravascular and infiltrated PMNs vs I/R+PMNs (in words) [1]: attenuated
LVDP of I/R+PMN group compared to treated I/R+PMN group (time course) ([2]; 10 μM, reperfusion 0 to 45 min): significant and sustained reduction
LVEDP of I/R+PMN group compared to treated I/R+PMN group (time course) ([2]; 10 μM, reperfusion 0 to 45 min): significant and sustained elevation
+dP/dtmax recovered to, of initial baseline [2, 4]: 51±5%
LVDP recovered to, of initial baseline [2, 4]: 60±13%
+dP/dtmax recovered to, of initial baseline [2, 5]: 67±7%
LVDP recovered to, of initial baseline [2, 5]: 80±9%
LVDP of initial baseline (initial depression) ([2]; I/R+PMN hearts, 10 μM): 58±8%
+dP/dtmax recovered to, of initial baseline [2, 6]: 79±5%
LVDP recovered to, of initial baseline [2, 6]: 83±3%
PMN-induced contractile dysfunction / decrease in +dP/dt max (in words) [2]: attenuated
PMN-induced contractile dysfunction / decrease in LVDP (in words) [2]: attenuated
PMNs adhering to the coronary vasculature vs I/R+PMN hearts (in words) [3]: attenuated
Superoxide release vs PMA-stimulated rat PMNs (in words) (PMA-stimulated rat PMNs; 1 μM): no significant inhibition
Superoxide release (absorbance) (PMA-stimulated rat PMNs; 5 μM): 0.32±0.03
Superoxide release (absorbance) (PMA-stimulated rat PMNs; 10 μM): 0.32±0.02
Superoxide release after PMA (15 nM) stimulation (in words) (PMA-stimulated rat PMNs; 360 sec after PMA): significantly inhibited

PKC βII peptide inhibitor: peptide inhibitor of protein kinase C beta II; preferred sequence SEQ ID NO: 1, preferably myristoylated (SLNPEWNET; not fully specified; listed as Homo sapiens)
Endothelial NO release vs basal NO release (in words) (rat aortic endothelium): significantly increased; also recorded: significantly more NO
Increase in NO release above basal (rat aortic endothelium; 1 μM): 0.75±0.19 pmoles NO/mg tissue
Increase in NO release above basal (rat aortic endothelium; 2.5 μM): 1.91±0.44 pmoles NO/mg tissue
Increase in NO release above basal (rat aortic endothelium; 5 μM): 2.54±0.29 pmoles NO/mg tissue
Increase in NO release above basal (rat aortic endothelium; 10 μM): 3.49±0.62 pmoles NO/mg tissue
Induced production of NO after treating the endothelium with L-NAME (rat aortic endothelium; L-NAME 400 μM): completely inhibited
LVDP of I/R+PMN group compared to treated I/R+PMN group (time course) ([2]; 10 μM, reperfusion 0 to 45 min): significant and sustained reduction
+dP/dtmax recovered to, of initial baseline [2, 4]: 53±6%
LVDP recovered to, of initial baseline [2, 4]: 57±4%
+dP/dtmax recovered to, of initial baseline [2, 5]: 63±7%
LVDP recovered to, of initial baseline [2, 5]: 69±7%
+dP/dtmax of initial baseline [2, 7]: 53±5%
LVDP of initial baseline [2, 7]: 56±2%
LVDP of initial baseline (initial depression) ([2]; I/R+PMN hearts, 10 μM): 61±10%
+dP/dtmax recovered to, of initial baseline [2, 6]: 79±10%
LVDP recovered to, of initial baseline [2, 6]: 82±9%
Protective effect on +dP/dt max in the presence of L-NAME (in words) ([2]; I/R+PMN hearts, with L-NAME): blocked
Protective effect on LVDP in the presence of L-NAME (in words) ([2]; I/R+PMN hearts, with L-NAME): significantly blocked
PMN-induced contractile dysfunction / decrease in +dP/dt max (in words) [2]: attenuated
PMN-induced contractile dysfunction / decrease in LVDP (in words) [2]: attenuated
Inhibition of superoxide (in words) (fMLP-stimulated rat PMNs; 1 μM): no significant inhibition
Superoxide release (absorbance) (fMLP-stimulated rat PMNs; 5 μM): 0.05±0.009
Superoxide release (absorbance) (fMLP-stimulated rat PMNs; 10 μM): 0.02±0.004
Superoxide release (absorbance) (fMLP-stimulated rat PMNs; 20 μM): 0.02±0.007
Superoxide release after fMLP (200 nM) stimulation (in words) (fMLP-stimulated rat PMNs; 5, 10 and 20 μM, 90 sec after fMLP): significantly inhibited

CC(=O)OCC[N+](C)(C)C [Acetylcholine, reference compound]
Increase in NO release compared to basal NO release (rat aortic endothelium; 200 nM (positive control)): 67±4%
Increase in NO release above basal (rat aortic endothelium; 500 nM (positive control)): 3.75±0.58 pmoles NO/mg tissue
